Columns and labels:
MCF-7 xenograft tumors = experiment: MCF-7 xenograft tumor model in nude mice; format: in vivo
Protocol: (§1) As evidence, SP-141 was administered to nude mice bearing MCF-7 and MDA-MB-468 xenograft tumors. SP-141 was administered by intraperitoneal (i.p.) injection at doses of 40 mg/kgn 1 per day for 42 and 30 days, respectively.
(§2) FIGS. 13-16 are presented to illustrate that. SP-141 suppresses breast xenograft tumor growth in vivo. FIGS. 13A and 13B illustrate tumor mass in nude mice bearing MCF-7 and MDA-MB-468, respectively. The xenograft tumors were treated with SP-141, which was administered by i.p. injection at 40 mg/kg 1 per day, 5 days per week for 42 and 30 days, respectively. FIGS. 14A and 14B illustrate the tumors after they were removed at the end of the experiments. The mice were also monitored for changes in body weight as a surrogate marker for toxicity in both the MCF-7 (as shown in FIG. 15A) and MDA-MB-468 (as shown if FIG. 15B) xenograft models. At the termination of the experiments, H&E staining of the paraffin sections of some organs from the mice bearing MCF-7 xenograft tumors was performed. (Mean±s.e.m., n>10 for each data point, two-sided Student's t-test, *P<0.01).

MDM2 protein [1] = molecular target: T1, MDM2 protein (Homo sapiens, UniProt Q00987); experiment: FP-based competitive binding assay
T1 sequence (Q00987 whole entry): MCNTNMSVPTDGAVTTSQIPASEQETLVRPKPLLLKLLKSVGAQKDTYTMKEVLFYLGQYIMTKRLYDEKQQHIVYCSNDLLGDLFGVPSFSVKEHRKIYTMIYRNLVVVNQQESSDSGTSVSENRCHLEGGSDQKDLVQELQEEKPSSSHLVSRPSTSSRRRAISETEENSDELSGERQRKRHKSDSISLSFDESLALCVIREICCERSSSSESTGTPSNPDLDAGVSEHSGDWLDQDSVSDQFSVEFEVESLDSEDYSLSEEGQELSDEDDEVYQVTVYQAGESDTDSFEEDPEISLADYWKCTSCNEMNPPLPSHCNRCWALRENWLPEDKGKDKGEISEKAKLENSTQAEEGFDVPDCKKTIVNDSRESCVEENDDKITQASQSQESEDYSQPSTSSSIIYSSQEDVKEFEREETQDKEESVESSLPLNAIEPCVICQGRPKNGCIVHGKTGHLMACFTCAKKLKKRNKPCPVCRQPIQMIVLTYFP
Source text: (§3) The reduction is proportional to dose. Thus, SP-141 can occupy the p53-binding site on MDM2 as illustrated by FIG. 6. […] Thus, SP-141 serves as a specific MDM2 inhibitor with a high binding capacity for the MDM2 protein.
(§4) FIG. 7A illustrates a chart illustrating % inhibition. This is illustrative of competitive binding to recombinant human MDM2 proteins using an FP-based binding assay. […] Similarly, FIG. 7B illustrates a chart or responses illustrative of competitive KD values of SP-141 to MDM2 as determined using the Biacore assay. The MDM2 protein was immobilized on a CM5 sensor chip. […] It is noteworthy that all the assays were performed in triplicate, and all the experiments were repeated at least three times.

p53 wt MCF-7 cells = experiment: Apoptosis assay; format: cell-based, human; conditions: 1-mM SP-141, 48 hours
Protocol: (§5) FIGS. 8-12 are presented toillustrate that SP-141 induces breast cancer cell death. In experiments conducted by the inventors, cells were exposed to various concentrations of SP-141 for 72 hours, using the MTT assay to evaluate the cell viability and IC50 value. FIG. 9 provides a photograph of such exposure for 24 hours using the colony formation assay. FIG. 10A illustrates a chart associated with 48 hours for the apoptosis assay and FIG. 10B illustrates a similar chart associated with 24 hours for the proliferation assay. FIG. 11 illustrates 24 hour for the cell cycle distribution assay. FIG. 12 illustrates a western blot analysis of the expression of MDM2 and proteins related to apoptosis and cell cycle arrest in human breast cancer cells. All these assays were performed in triplicate, and all the experiments were repeated at least three times (mean±s.e.m., n=9 for each data point, two-sided Student's t-test. *Po 0.01).

p53 KO MCF-7 cells = experiment: Apoptosis assay; format: cell-based, human; conditions: 1-mM SP-141, 48 hours
Protocol: as §5

p53 mt MDA-MB-468 cells = experiment: Apoptosis assay; format: cell-based, human; conditions: 1-mM SP-141, 48 hours
Protocol: as §5

GST-MDM2 = GST-MDM2 (Homo sapiens, UniProt Q00987); experiment: Biotin-avidin pull-down assay with biotinylated SP-141; format: binding; conditions: biotin-SP-141 conjugate, avidin beads; purified GST negative control
Sequence of GST-MDM2 (Q00987 whole entry): as above
Source text: As illustrated in FIGS. 2 and 3.
A western blot analysis is illustrated in FIG. 5. […] Purified GST was used as a negative control. The bound protein was detected using anti-MDM2 and anti-GST antibodies.
The bound protein was detected using anti-MDM2 antibody.

[2] = test system: human breast cancer cell lines; experiment: Cell cycle distribution assay; format: cell-based; parameters: dose or concentration left out as unconfirmed; conditions: 24 hours
Protocol: (§6) MDA-MB-468 cells are more sensitive to SP-141 treatment at higher concentrations than MCF-7 and MCF-7 p53 KD cells.
as §5

MDM2 protein [3] = experiment: Western blot of MDM2 expression in breast cancer cells; format: cell-based, human; conditions: multiple tested cell lines
Protocol: SP-141 also effects MDM2 expression. […] In the MCF-7 (p53 wt) cells, the wild-type p53 protein level increased, in accordance with an expected inhibition of MDM2. […] SP-141 increases the expression of cleaved PARP and Bax and decreases the expression of Bcl-2 and Cyclin E in a p53-independent manner.
as §5

[4] = test system: MCF-7 cells (both p53 wt and p53 KD); experiment: Proliferation assay; format: cell-based, human; conditions: 0.5-mM concentration, 24 hours
Protocol: as §6, §5

[5] = test system: MDA-MB-231 human breast cancer cells; experiment: Wound healing assay (cell migration); format: cell-based; conditions: 0.1 or 0.2 mM SP-141, MDA-MB-231 cells
Protocol: SP-141 inhibits cell migration in vitro and in vivo. A crucial component of tumor cell invasion is cell migration. A wound healing assay can be used to investigate the effect of SP-141 on cancer cell motility, using MDA-MB-231 human breast cancer cells. The cells can be treated with the vehicle, or with 0.1 or 0.2 mM of SP-141, in order to evaluate the cell migration into the wound made in the cell monolayer.
(§7) FIGS. 28-30 are provided to illustrate that SP-141 inhibits cell metastasis in vitro and in vivo. MDA-MB-231 cells were grown to confluence in a six-well plate, illustrated in FIG. 28. A scratch was made at experimental time zero, and then the cells were exposed to various concentrations of SP-141. The wells were imaged at different time points. All the experiments were repeated at least three times. The effects of SP-141 on the expression of EMT-related proteins in MDA-MB-231 cells is shown in the western blot analysis provided in FIG. 29. About 1×10^ 6 MDA-MB-231-Luc cells were intravenously injected into a tail vein of nude mice. SP-141 was administered by i.p. injection at doses of 20 mg kg, 1 per day, 5 days per week for 2 weeks. The luciferase signals in the mice were detected and photographed using an MS in vivo image system on days 1, 8, and 15, as shown in FIG. 30.

MDM2 protein [6] = molecular target: T1, MDM2 protein; experiment: Biacore assay (MDM2 immobilized on CM5 sensor chip); conditions: read-out: KD for binding to the MDM2 protein
Source text: as §3, §4

breast cancer cell lines = experiment: Colony formation assay; format: cell-based, human; conditions: 24 hours exposure
Protocol: as §5

[7] = test system: MDA-MB-231-Luc breast cancer cells; experiment: Experimental metastasis assay; format: in vivo, nude mice; conditions: i.p. 20 mg/kg per day for 2 weeks; days 8 and 15
Protocol: To validate the anti-metastatic effects of SP-141 in vivo, an experimental metastasis assay can be performed. MDA-MB-231-Luc breast cancer cells can be intravenously injected into a tail vein of nulnu mice. The animals are randomly divided into a treatment group and a control group after cell injection. SP-141 can be administered by i.p injection at doses of 20 mg/kg, 1 per day for 2 weeks.
as §7

[8] = test system: MDM2 protein in MCF-7 and MDA-MB-468 cells; experiment: MDM2 protein degradation (cycloheximide chase, western blot); format: cell-based, human; conditions: 0.5 mM SP-141 24 hours, then cycloheximide
Protocol: SP-141 can also induce MDM2 protein degradation. Specifically. SP-141 can induce MDM2 inhibition in vitro and in vivo. […] The p53 protein was stabilized in MCF-7 cells, but not in the p53 mt […] cells.
MCF-7 and MDA-MB-468 cells were treated with SP-141 (0.5 mM), and then exposed to cycloheximide (CHX, 15 mg ml 1), an inhibitor of protein synthesis. The graphs in FIG. 20 show the quantification of the western blot data. Cells were treated with SP-141 (0.5 mM) for 24 hours, and then exposed to a proteasome inhibitor, MG 132 (25 mM), for an additional 6 hours. The protein levels of MDM2 were detected with western blot analysis, as illustrated in FIG. 21. Further, cells were transfected with MDM2 and ubiquitin plasmids, followed by treatment with SP-141 for 24 hours. The cells were then exposed to MG132 (25 mM) for an additional 6 hours, and the lysates were subjected to immunoprecipitation with an MDM2 antibody. Cells were transfected with a wild-type MDM2 plasmid or mutant MDM2 plasmid without E3 ligase activity (C464A). After treatment with SP-141 for 24 hours, MDM2 levels were detected with western blot analysis, as illustrated in FIG. 23. Representative images of MDM2 immunofluorescence in control and SP-141 (1 mM)-treated cells are illustrated in FIG. 24. B-actin and DAPI were used as internal references. All the experiments were repeated three times.

[9] = test system: MDA-MB-468 xenograft tumors; experiment: MDA-MB-468 xenograft tumor model in nude mice; format: in vivo; conditions: i.p. 40 mg/kg per day
Protocol: as §1, §2

With `COc1ccc2[nH]c3c(-c4cccc5ccccc45)nccc3c2c1` [SP-141, 6-methoxy-1-(naphthalen-1-yl)-9 H-pyrido[3,4-b]indole] the “Host toxicity monitored by changes in body weight” value (MCF-7 xenograft tumors; MCF-7 model, i.p. 40 mg/kg per day, 42 days) was “no significant host toxicity”, the “Inhibition of xenograft tumor growth” value (MCF-7 xenograft tumors; MCF-7 xenograft, i.p. 40 mg/kg per day, day 42) was 82% and the “Organ abnormalities at necropsy / histological examination” value (MCF-7 xenograft tumors; mice bearing MCF-7 xenograft tumors, 40 mg/kg per day) was “no gross organ (liver, lung, kidney, spleen, heart or brain) abnormalities”. For the same compound, the Ki (MDM2 protein [1]) was 28 ± 6 nM, the “Increase of apoptotic index” value (p53 wt MCF-7 cells) was 14 fold and the “Increase of apoptotic index” value (p53 KO MCF-7 cells) was 7 fold. The “Increase of apoptotic index” value (p53 mt MDA-MB-468 cells) was 11 fold, the “Binding to MDM2 versus GST (pull-down)” value (GST-MDM2) was “binds to MDM2, but not GST” and the “Effect on cell cycle” value [2] was “induces cell cycle arrest in the G2 phase”. For the same compound, the MDM2 protein levels (MDM2 protein [3]) was “decrease in a concentration-dependent manner”, the “Effect on cell proliferation” value [4] was “significant decrease in proliferation” and the “Effect on cell migration into the wound” value [5] was “significantly decreased the cell migration”. For the same compound, the Kd (MDM2 protein [6]) was 43 nM, the “Effect on cancer cell colony formation” value (breast cancer cell lines) was “inhibit cancer cell colony formation in a concentration-dependent manner” and the “Effect on metastasis (luciferase signals in lung tissues)” value [7] was “decreases the metastasis of breast cancer cells”. The “Degradation rate of the MDM2 protein” value [8] was “increased the degradation rate of the MDM2 protein”, the “Host toxicity monitored by changes in body weight” value ([9]; MDA-MB-468 model, 30 days) was “no significant host toxicity” and the “Inhibition of xenograft tumor growth” value ([9]; MDA-MB-468 xenograft, day 30) was 80%.

Reference: US10472355B2, “Cancer treatment utilizing SP-141 to bind with MDM2 and act as an inhibitor of MDM2 expression” (Texas Tech University System, priority 2014, dated 2019)
